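Values below derive from 48-hour exposures of cells grown in 96-well plates, with endpoints linearly interpolated between the two concentrations bracketing the appropriate inhibition level. Abbreviation: GI50, concentration required for 50% inhibition of growth.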 Calls of active or inactive are those of the source. Rule as the data show it: active = GI50 up to about 1.1 µM and inactive = higher.
Experiments:
Assay in all cases: NCI tumour cell line growth inhibition, 48 h
[1] = test system: 786-0
[2] = test system: A498
[3] = test system: ACHN
[4] = test system: CCRF-CEM
[5] = test system: COLO 205
[6] = test system: DU-145
[7] = test system: HCT-15
[8] = test system: HL-60
[9] = test system: K562
[10] = test system: LOX IMVI
[11] = test system: NCI-H460
[12] = test system: OVCAR-3
[13] = test system: PC-3
[14] = test system: RPMI-8226
[15] = test system: SK-MEL-28
[16] = test system: SK-MEL-2
[17] = test system: SNB-19
[18] = test system: SNB-75
[19] = test system: T47D
[20] = test system: UACC-62

COc1cc2c(cc1OC)C(SC)C(=O)N(Cc1cccc(OC)c1OC)CC2 (stereo not given)
GI50 [1]: 3.85 µM (inactive)
GI50 [2]: 2.03 µM (inactive)
GI50 [3]: 5.04 µM (inactive)
GI50 [4]: 3.61 µM (inactive)
GI50 [5]: 2.74 µM (inactive)
GI50 [6]: 2.51 µM (inactive)
GI50 [7]: 0.718 µM
GI50 [8]: 0.411 µM (active)
GI50 [9]: 0.501 µM (active)
GI50 [10]: 2.1 µM (inactive)
GI50 [11]: 1.09 µM (active)
GI50 [12]: 0.798 µM (active)
GI50 [13]: 1.28 µM (inactive)
GI50 [14]: 3.61 µM (inactive)
GI50 [15]: 1.99 µM (inactive)
GI50 [16]: 1.26 µM (inactive)
GI50 [17]: 8.75 µM (inactive)
GI50 [18]: 3.3 µM (inactive)
GI50 [19]: 4.13 µM (inactive)
GI50 [20]: 0.731 µM (active)

O=c1c2ncn(C3CCCCO3)c2n(-c2ccccc2)c(=S)n1-c1ccccc1 (stereo not given)
GI50 [1]: 16.4 µM (inactive)
GI50 [2]: 30.7 µM (inactive)
GI50 [3]: 45.1 µM (inactive)
GI50 [4]: > 83 µM (inactive)
GI50 [5]: > 71.4 µM (inactive)
GI50 [6]: > 71.3 µM (inactive)
GI50 [7]: 55.3 µM
GI50 [8]: > 64.4 µM (inactive)
GI50 [9]: > 68.7 µM (inactive)
GI50 [10]: 56.5 µM (inactive)
GI50 [11]: > 54.8 µM (inactive)
GI50 [12]: > 61.9 µM (inactive)
GI50 [13]: 80.4 µM (inactive)
GI50 [14]: > 52.7 µM (inactive)
GI50 [15]: > 68.1 µM (inactive)
GI50 [16]: 39.2 µM (inactive)
GI50 [17]: 21.5 µM (inactive)
GI50 [18]: 7.69 µM (inactive)
GI50 [19]: 2.31 µM (inactive)
GI50 [20]: 18.5 µM (inactive)

CSc1nc(SC)c2c(CO)c(Br)n(Cc3ccccc3)c2n1
GI50 [1]: 18.7 µM (inactive)
GI50 [2]: 4.32 µM (inactive)
GI50 [3]: 15.3 µM (inactive)
GI50 [4]: > 100 µM (inactive)
GI50 [5]: > 100 µM (inactive)
GI50 [6]: 25.9 µM (inactive)
GI50 [7]: 70 µM
GI50 [8]: > 100 µM (inactive)
GI50 [10]: 25.3 µM (inactive)
GI50 [11]: 15.7 µM (inactive)
GI50 [12]: 29.5 µM (inactive)
GI50 [13]: 43.1 µM (inactive)
GI50 [14]: 92.9 µM (inactive)
GI50 [15]: 47.9 µM (inactive)
GI50 [16]: 25.7 µM (inactive)
GI50 [17]: 29 µM (inactive)
GI50 [18]: 13.6 µM (inactive)
GI50 [19]: 14.9 µM (inactive)
GI50 [20]: 17.5 µM (inactive)

COC(=O)c1ccccc1CC1Cc2ccc3c(c2C1)CCC3 (stereo not given)
GI50 [1]: 33.3 µM (inactive)
GI50 [2]: > 100 µM (inactive)
GI50 [3]: 30.5 µM (inactive)
GI50 [4]: 17.9 µM (inactive)
GI50 [5]: 17.4 µM (inactive)
GI50 [6]: 45.1 µM (inactive)
GI50 [7]: 20.4 µM
GI50 [8]: 13.9 µM (inactive)
GI50 [9]: 29.6 µM (inactive)
GI50 [10]: 16 µM (inactive)
GI50 [11]: 30.1 µM (inactive)
GI50 [12]: 31.3 µM (inactive)
GI50 [13]: 29.2 µM (inactive)
GI50 [14]: 18.1 µM (inactive)
GI50 [15]: 46 µM (inactive)
GI50 [16]: 15.6 µM (inactive)
GI50 [17]: 48.6 µM (inactive)
GI50 [18]: 25.8 µM (inactive)
GI50 [19]: 22.9 µM (inactive)
GI50 [20]: 38.5 µM (inactive)

CCCCCCCCCCCCNC(C)=O
GI50 [1]: 16.8 µM (inactive)
GI50 [2]: 20 µM (inactive)
GI50 [3]: 23.2 µM (inactive)
GI50 [4]: 14.4 µM (inactive)
GI50 [5]: 17.7 µM (inactive)
GI50 [6]: 30.9 µM (inactive)
GI50 [7]: 16.9 µM
GI50 [10]: 6.85 µM (inactive)
GI50 [11]: 17.7 µM (inactive)
GI50 [12]: 17.7 µM (inactive)
GI50 [13]: 14.5 µM (inactive)
GI50 [14]: 13.4 µM (inactive)
GI50 [15]: 17.6 µM (inactive)
GI50 [16]: 14.8 µM (inactive)
GI50 [17]: 16.3 µM (inactive)
GI50 [18]: 23.6 µM (inactive)
GI50 [19]: 18.9 µM (inactive)
GI50 [20]: 15.6 µM (inactive)

CC(C)(CO)CNc1nc(N)nc(Cl)c1C=O
GI50 [1]: 79.3 µM (inactive)
GI50 [2]: > 100 µM (inactive)
GI50 [3]: 48.8 µM (inactive)
GI50 [4]: 20.6 µM (inactive)
GI50 [5]: 25.5 µM (inactive)
GI50 [6]: 94 µM (inactive)
GI50 [7]: 15.3 µM
GI50 [8]: 3.9 µM (inactive)
GI50 [9]: 5.19 µM (inactive)
GI50 [10]: 16.4 µM (inactive)
GI50 [11]: 36.4 µM (inactive)
GI50 [12]: 25.6 µM (inactive)
GI50 [13]: 16.8 µM (inactive)
GI50 [14]: 60.5 µM (inactive)
GI50 [15]: 24.4 µM (inactive)
GI50 [16]: 16.8 µM (inactive)
GI50 [18]: 35.6 µM (inactive)
GI50 [19]: 42.9 µM (inactive)
GI50 [20]: 12.5 µM (inactive)

N#CC[N+]1(Cc2ccccn2)CCCC1.O=S(=O)([O-])c1ccccc1
GI50 [1]: > 100 µM (inactive)
GI50 [2]: > 100 µM (inactive)
GI50 [3]: > 100 µM (inactive)
GI50 [5]: > 100 µM (inactive)
GI50 [6]: > 100 µM (inactive)
GI50 [7]: > 100 µM
GI50 [8]: 70.6 µM (inactive)
GI50 [9]: > 100 µM (inactive)
GI50 [10]: > 100 µM (inactive)
GI50 [11]: > 100 µM (inactive)
GI50 [12]: > 100 µM (inactive)
GI50 [13]: > 100 µM (inactive)
GI50 [14]: > 100 µM (inactive)
GI50 [15]: > 100 µM (inactive)
GI50 [16]: > 100 µM (inactive)
GI50 [17]: > 100 µM (inactive)
GI50 [18]: 58.9 µM (inactive)
GI50 [19]: > 100 µM (inactive)
GI50 [20]: > 100 µM (inactive)

Reference: ChEMBL document CHEMBL1201862, “PubChem BioAssay data set” (2004)
